{"source": "patent US20220160680A1", "about": "“MICROORGANISM MIXTURES, MOLECULES DERIVED THEREFROM, AND METHODS OF USE THEREOF” (B. G. Negev Technologies and Applications Ltd., at …, priority 2018, published 2022)", "key": {"amyloid beta (αβ1-42) [1]": {"molecular_target": "T1, amyloid beta (αβ1-42) (Homo sapiens, UniProt P05067)", "T1 construct": "samples containing 30 μM amyloid beta [4(1-42)] in the absence or presence of tryptophol acetate", "T1 sequence (P05067 672-713 limits assumed)": "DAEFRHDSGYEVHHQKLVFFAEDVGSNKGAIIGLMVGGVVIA", "test": "Thioflavin T (ThT) assay", "format": "biochemical", "details": "30 μM amyloid beta, 12 hours of incubation", "protocol": "ThT fluorescence measurements were taken at 37° C. using 96-well black plate on a Biotek Synergy H1 plate reader. Measurements were made on a samples containing 30 μM amyloid beta [4(1-42)] in the absence or presence of tryptophol acetate in different concentrations. A 120-μL aliquot of the aggregation reaction was mixed with 10 μM ThT in phosphate buffer (pH 7.4). The fluorescence intensity was measured every 30 min for 24 hr at λ excitation (λex)=440 and λ emission (λem)=485 nm."}, "Staphylococcus aureus": {"system": "Staphylococcus aureus", "test": "Static biofilm assay (CLSM)", "format": "cell-based", "details": "50 μM", "protocol": "(§1) For static biofilm assay, overnight cultures of P. aeruginosa (PA01), Salmonella and Staphylococcus aureus strains were diluted 1:10 in fresh LB medium containing a final concentration of synthesized molecule (203) of 20 or 50 μM, or DMSO (up to 1%) as control. Biofilms were grown under non-shaking conditions at 37° C. in 96-well plate (Thermo Scientific, Rochester, N.Y., USA). […] The stained cells were washed twice with PBS. Biofilm images were taken by CLSM (Plan-Apochromat 20×/0.8 M27, Zeiss LSM880, Germany).\n(§2) P. aeruginosa PA01, Salmonella and Staphylococcus aureus strains were incubated for 24 hr at 37° C. The bacterial suspension was diluted 1:10 with fresh LB and incubated for 3 h with the kefir biomass crude extract molecules or with DMSO as a control (refreshment sample). In all cultures, DMSO concentration was up to 1% (v/v). 200 μl of the broth medium mix with yogurt extract or with DMSO as control were placed in each well of a 96-well plate (Thermo Scientific, Rochester, N.Y., USA). 2 μl refreshment samples were added to each suitable well. The plate incubated for 24 hr at 37° C. After the incubation the samples washed three times with PBS. For visualizing of viable cells, the bacteria were stained green and dead cells stained red using the BacLight® Dead/Live Kit (Invitrogen, Eugene, Oreg., USA). The stained cells were washed twice with PBS. […]"}, "[2]": {"system": "Agrobacterium tumefaciens A136", "test": "Quorum sensing bioluminescence reporter assay", "format": "cell-based", "details": "C8 (3-oxo-C8-HSL) autoinducer", "description": "Agrobacterium tumefaciens A136 pCF218 pMV26 culture was grown in Luria-Bertani broth (LB; Miller's broth) supplemented with 25 μg/ml of kanamycin and 4.5 μg/ml of tetracycline at 28-30° C. for 24 h. […] The overnight cultures were diluted to an absorbance density (OD600) of 0.05 by fresh LB medium. […] Luminescence was measured every 20 min for 19 h with continuous shaking at 30° C., using a Microtiter Plate Reader (Varioskan Flash, Thermo). Average luminescence values divided by OD600 values were plotted against the added compound concentration.\nThe effect of the Kefir biomass crude extract molecules on the following bacteria, A. tumefaciens A136, V. cholerae MM920 and V. harveyi MM30 were measured as described by Brenier et al. (2008). […]"}, "P. aeruginosa (PA01)": {"system": "P. aeruginosa (PA01)", "test": "Static biofilm assay (CLSM)", "format": "cell-based, Pseudomonas aeruginosa", "details": "20 μM", "protocol": "as §1, §2"}, "[3]": {"system": "Pseudomonas aeruginosa RhlA", "test": "Quorum sensing bioluminescence reporter assay", "format": "cell-based", "details": "C4 AI, high volume", "protocol": "(§3) FIGS. 8A-8E are vertical bar graphs showing bioluminescence screening of quorum sensing (QS) inhibition or activation in the presence of synthetic Tryptophol acetate. The assay was performed using mutant bacteria lacking genes encoding autoinducers. Bacteria were also cloned with a bioluminescence reporter plasmid. N-acyl Homoserine Lactone (AHL) was used for activation (agonist) or inhibition (antagonist) of the following bacteria: Agrobacterium tumefaciens, which responds to the C8 autoinducer (AI), Vibrio cholerae responds to the CAI1 autoinducer, Pseudomonas aeruginosa RhlA responds to the C4 AI and Pseudomonas aeruginosa LasR responds to the C12 AI.\n(§4) Bioluminescence assay was performed with mutant bacteria lacking the nucleotide sequences encoding the relevant autoinducers (AI). Additionally, the bacteria were cloned with bioluminescence reporter plasmids in order to measure their luminescence intensity when quorum sensing gene expression occurs. Ninety-six (96) well microtiter plate assays were used to assess AI activation (agonist) or inhibition (antagonist) of the following bacteria: Agrobacterium tumefaciens, which responds to the C8 autoinducer, and both Vibrio cholerae and Vibrio harveyi, which respond to the (S)-4,5-dihydroxy-2,3-pentanedione (DPD) autoinducer to communicate."}, "[4]": {"system": "Pseudomonas aeruginosa LasR", "test": "Quorum sensing bioluminescence reporter assay", "format": "cell-based", "details": "C12 AI", "protocol": "as §3, §4"}, "amyloid beta (αβ1-42) [5]": {"molecular_target": "T1, amyloid beta (αβ1-42)", "test": "Surface plasmon resonance, anti-amyloid oligomer antibody chip", "format": "binding", "details": "30 μM αβ1-42, 6-200 μM", "protocol": "SPR sensor chip with Oligomer All antibody, an anti-amyloid oligomer conformation-specific antibody was tested with samples containing 30 μM 4(1-42) in the absence or presence of tryptophol acetate in different concentrations."}, "[6]": {"system": "P. aeruginosa (PA01), Salmonella and Staphylococcus aureus strains", "test": "Bacterial cell growth/viability (BacLight Dead/Live)", "format": "cell-based", "protocol": "as §1, §2"}}, "note": "“Also recorded” adds a separate entry of the source.", "data": [{"smiles": "CC(=O)OCCc1c[nH]c2ccccc12", "note": "[Tryptophol acetate]", "values": [{"measurement": "Amyloid beta fibrillation (ThT)", "setting": "amyloid beta (αβ1-42) [1]", "value": "effectively reduced amyloid beta fibrillation; also recorded: reduced αβ1-42 fibrillation"}, {"measurement": "Biofilm formation, Staphylococcus aureus", "setting": "Staphylococcus aureus", "value": "significant influence on biofilm formation"}, {"measurement": "Effect on QS in A. tumefaciens", "setting": "[2]", "value": "inhibits QS"}, {"measurement": "Biofilm formation, P. aeruginosa", "setting": "P. aeruginosa (PA01)", "value": "did not seem to affect biofilm formation; also recorded: No influence"}, {"measurement": "Effect on QS in P. aeruginosa (RhlA)", "setting": "[3]", "value": "low inhibition effect"}, {"measurement": "Effect on QS in P. aeruginosa (LasR)", "setting": "[4]", "value": "low inhibition effect"}, {"measurement": "Inhibition of amyloid beta (SPR)", "setting": "amyloid beta (αβ1-42) [5]", "value": "dose dependent manner"}, {"measurement": "Bacterial cell growth / viability", "setting": "[6]", "value": "did not impact cell growth"}]}]}
